Laboratory results from patent US8329719B2, “Neuroprotective agents for the prevention and treatment of neurodegenerative diseases” (Lixte Biotechnology, Inc., priority 2008, dated 2012).
Entries after “also recorded” stand apart in the source; their conditions may differ.

Tests used:
protein phosphatase 2A = protein phosphatase 2A (Homo sapiens, UniProt P67775); assay: Inhibition of protein phosphatase 2A; assay type: biochemical
HDAC = HDAC inhibition; assay type: biochemical
[1] = tested on: primary rat cortical neurons; assay: Neurite extension after Calcein staining; assay type: cell-based; settings: 250 and 500 nM
Method: Neurite extension was evaluated after Calcein staining using commercially available software.

[2] = tested on: primary embryonal rat cortical neuronal cells; assay: Survival of primary cortical neurons after environmental stress (growth factor deficient medium 1 hour); assay type: cell-based; settings: 500 nM, cell counts at 3, 6, 13 and 23 days in culture, n=4
Method: FIG. 6. Photomicrographs of primary embryonal rat cortical neuronal cells at 23 days subjected to environmental stress by exposure to growth factor deficient medium for 1 hour on day 3 of culture.
FIG. 7. Average number of primary embryonal rat cortical neuronal cells at 3, 6, 13, and 23 days in culture (n=4). • All cultures were exposed to growth factor deficient medium for 1 hour on day 3 followed by of culture in complete medium containing no supplement (control), drug vehicle (0.05% DMSO), compound 102 (500 nM), or compound 201 (500 nM).
Neurons were chronically or acutely treated with each compound and exposed to environmental stress (replacement of the culture medium with a saline PBS based solution for one hour followed by removal of the PBS medium and restoration of standard neuronal culture medium) and then observed for survival (FIG. 6).

[3] = tested on: NMDA type response to glutamate in primary rat cortical neurons; assay: Calcium response of cultured neurons to acute glutamate exposure; assay type: cell-based; settings: for calcium response to 200 uM glutamate versus DMSO control: 500 nM compound, 24 h prior to glutamate, single study; for average % increase in response to glutamate exposure: average of 4 separate experiments (FIG. 19)
Excerpt: To assess the effects of compound 102 and compound 201, independently, on neuronal function, the ability of the neurons in a culture dish to respond to exposure to glutamate was studied. In vitro, neurons respond to glutamate with the activation of several receptors associated with different transducing mechanisms. The assortment of glutamate sensitive receptors in a given neuronal population depends on maturation and differentiation. After seven days in culture, there is an assortment of glutamate receptors, including the AMPA/Kainate and NMDA receptors. AMPA/Kainate receptors are in general maximally expressed in the first few days in vitro followed by a gradual decline, while NMDA receptor expression increases over time, reaching a maximum after 7 days in vitro. AMPA/Kainate responses to exposure to glutamate as measured by calcium flux are characterized by fast desensitization (i.e. very little measurable calcium increase), while NMDA responses are characterized by an elevation of calcium concentration that persists as long as glutamate is applied. In the absence of test drug, there was variability in glutamate responsiveness dependent on NMDA receptor expression. A typical response of neurons in culture to glutamate characteristic of the NMDA receptors consists of a rapid increase and a high plateau phase of calcium (FIGS. 8-10). […] This modulation is compatible with a positive neurotrophic effect of compound 201.

[4] = tested on: acetylated histone 3 and histone 4; assay: Acetylation of Histone 3 and Histone 4 in normal mouse brain (western blot); assay type: in vivo; settings: for entry into the brain: mouse, given intraperitoneally, shown by histone acetylation; for acetylation of histone 3 and histone 4 in brain: normal mice, 0.03 mg/20 gram mouse, 4 hours of exposure, compared to control tissue
Method: FIG. 5: Induction of acetylation of Histone 3 and Histone 4 in normal mouse brain by Compound 100 and Compound 102. • Normal mice were treated with Compound 100 and Compound 102, 0.03 mg/20 gram mouse. After 4 hours of exposure, treated and control animals (vehicle alone) animals were sacrificed and western blots for acetylated histone 3 and histone 4 were made.
Normal mice were treated with Compound 100 or Compound 102 at a dose of 0.03 mg/20 gram mouse, or with vehicle. After 4 hours of exposure, treated and control animals were sacrificed and western blots for acetylated histone 3 and histone 4 were made.

Akt = Akt phosphorylation in the cell lines tested growing as xenografts in SCID mice; assay type: in vivo; settings: given intraperitoneally
Excerpt: The compounds increase the phosphorylation of several regulatory proteins including Akt. At low doses that are non-toxic to mice, these compounds slightly stimulate cell proliferation and increases phosphorylation of Akt in human cancer cell lines tested including SH-SY5Y.

[5] = tested on: p-Akt / total Akt in medulloblastoma cells, DAOY; assay: Induction of phosphorylated Akt in DAOY cells in culture (western blot); assay type: cell-based, human; settings: after 4 hours
Method: FIG. 1: Induction of phosphorylated Akt by Compound 100 in DAOY cells in culture. • The medulloblastoma cells, DAOY, in culture were exposed to Compound 100, Compound 205 or vehicle alone. After 4 hours western blots were made for p-Akt, total Akt, and beta actin.
Medulloblastoma cells, DAOY, were grown in culture and exposed to Compound 100, […] or vehicle alone. After 4 hours western blots were made for p-Akt, total Akt and beta actin.

[6] = tested on: p-Akt / total Akt in human glioblastoma U87 xenografts; assay: Induction of phosphorylated Akt in U87 cells growing as xenografts in SCID mice (western blot); assay type: in vivo; settings: 0.03 mg/20 gram mouse, after 4 hours
Method: FIG. 4: Induction of phosphorylated Akt by Compound 100 in U87 cells growing as xenografts in SCID mice. • SCID mice with human glioblastoma cells, U87, implanted subcutaneously were treated with 0.03 mg/20 gram mouse with Compound 100 or vehicle alone. After 4 hours, western blots were made for p-Akt, total Akt, and beta actin.
Human glioblastoma U87 cells were implanted subcutaneously in SCID mice. Mice were then treated with 0.03 mg/20 gram mouse with Compound 100 or vehicle alone. After 4 hours, western blots were made for p-Akt, total Akt, and beta actin.

[7] = tested on: p-Akt / total Akt in human medulloblastoma DAOY xenografts; assay: Induction of phosphorylated Akt in DAOY cells growing as xenografts in SCID mice (western blot); assay type: in vivo; settings: 0.03 mg/20 gram mouse, after 4 hours and 24 hours
Method: FIG. 2: Induction of phosphorylated Akt by Compound 100 in DAOY cells growing as xenografts in SCID mice. • SCID mice with human medulloblastoma cells, DAOY, implanted subcutaneously were treated with 0.03 mg/20 gram mouse with Compound 100 or vehicle alone. After 4 hours and 24 hours western blots were made for p-Akt, total Akt, and beta actin. Control cells (C) at both time points (only 24 hour point shown) had only trace amounts of p-Akt and substantial amounts of total Akt and beta actin.
Human medulloblastoma DAOY cells were implanted subcutaneously in SCID mice. Mice were then treated with 0.03 mg/20 gram mouse with Compound 100 or vehicle alone. After 4 hours and 24 hours, western blots were made for phosphorylated Akt (p-Akt), total Akt, and beta actin. Control cells at both time points had only trace amount of p-Akt and substantial amounts of total Akt and beta actin.

[8] = tested on: p-Akt / total Akt in human glioblastoma cells, U87; assay: Induction of phosphorylated Akt in U87 cells in culture (western blot); assay type: cell-based; settings: after 4 hours
Method: FIG. 3: Induction of phosphorylated Akt by Compound 100 in U87 cells in culture. • The human glioblastoma cells, U87, were exposed to compound 100 or vehicle alone. After 4 hours western blots were made for p-Akt, total Akt, and beta actin.
Human glioblastoma cells, U87, were grown in culture and exposed to Compound 100 or vehicle alone. After 4 hours, western blots were made for p-Akt, total Akt, and beta actin.

Chain of protein phosphatase 2A (P67775 whole entry): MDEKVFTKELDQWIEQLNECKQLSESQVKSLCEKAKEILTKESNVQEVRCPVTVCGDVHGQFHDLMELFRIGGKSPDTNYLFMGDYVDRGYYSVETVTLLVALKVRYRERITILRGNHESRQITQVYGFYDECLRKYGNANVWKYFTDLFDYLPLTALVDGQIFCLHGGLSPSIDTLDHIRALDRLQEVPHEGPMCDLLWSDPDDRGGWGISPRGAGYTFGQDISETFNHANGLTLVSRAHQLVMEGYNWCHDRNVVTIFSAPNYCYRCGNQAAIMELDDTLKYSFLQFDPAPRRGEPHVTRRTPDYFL

Q: With `CN(C)CCNC(=O)C1C(C(=O)O)[C@H]2CC[C@@H]1O2` (stereo partly shown) [Compound 106] as the compound, how does the “inhibition of protein phosphatase 2A” value (protein phosphatase 2A) read?
A: inhibit protein phosphatase 2A

Q: For `O=C(CCCCCNC(=O)c1ccccc1S)Nc1ccccc1` [Compound 201], which HDAC inhibition (HDAC) is on record?
A: class I and II HDAC inhibitor

Q: What about the process length [1] of the same compound?
A: increased process length

Q: What about the total neurite outgrowth [1] of the same compound?
A: increased total neurite outgrowth

Q: What about the “neuronal cell number / protection of cell integrity after stress” value [2] of the same compound?
A: marked neurotrophic effects as evidenced by maintenance for up to 21 days neuronal cell numbers; also recorded: statistically significant (p<=0.01) protection of cell integrity

Q: What about the “calcium response to 200 uM glutamate versus DMSO control” value [3] of the same compound?
A: statistically significant increase in the NMDA type response to glutamate; also recorded: significantly enhanced the response to glutamate

Q: What about the “average % increase in response to glutamate exposure” value [3] of the same compound?
A: significantly enhanced the response to glutamate

Q: How did the “inhibition of protein phosphatase 2A” value (protein phosphatase 2A) turn out when `CC(C)(C)OC(=O)N1CCN(C(=O)C2C(C(=O)O)[C@H]3CC[C@@H]2O3)CC1` (stereo partly shown) [Compound 102] was run?
A: inhibit protein phosphatase 2A; also recorded: protein phosphatase 2A inhibitor

Q: And the “entry into the brain” value [4]?
A: properties that enhance their entry into the brain

Q: And the “acetylation of histone 3 and histone 4 in brain” value [4]?
A: increased acetylation of the histones

Q: What about the process length [1] of the same compound?
A: increased process length

Q: What about the total neurite outgrowth [1] of the same compound?
A: increased total neurite outgrowth

Q: And the “neuronal cell number / protection of cell integrity after stress” value [2]?
A: little effect on cell number

Q: What about the “calcium response to 200 uM glutamate versus DMSO control” value [3] of the same compound?
A: statistically significant increase in the NMDA type response to glutamate; also recorded: significantly enhanced the response to glutamate

Q: And the “average % increase in response to glutamate exposure” value [3]?
A: smaller but statistically significant effect; also recorded: less effective but still had a significant effect

Q: And the “Akt phosphorylation in xenografts” value (Akt)?
A: increased Akt phosphorylation

Q: Which “inhibition of protein phosphatase 2A” value (protein phosphatase 2A) does the source give for `CN1CCN(C(=O)C2C(C(=O)S)[C@H]3CC[C@@H]2O3)CC1` (stereo partly shown) [Compound 108] here?
A: inhibit protein phosphatase 2A

Q: What does the source list for `O=C(CCCCCNC(=O)c1ccccc1S)Nc1cccnc1` [Compound 205]?
A: inhibition of protein phosphatase 2A (protein phosphatase 2A): no anti-PP2A activity; HDAC inhibition (HDAC): investigational histone deacetylase inhibitor; p-Akt (western blot) [5]: little effect; also recorded: no effect

Q: How did the “inhibition of protein phosphatase 2A” value (protein phosphatase 2A) turn out when `COc1ccc(CCN2CCC(NC(=O)C3C(C(=O)O)[C@H]4CC[C@@H]3O4)CC2)cc1` (stereo partly shown) [Compound 104] was run?
A: inhibit protein phosphatase 2A

Q: Which “inhibition of protein phosphatase 2A” value (protein phosphatase 2A) does the source give for `COC(=O)C1C(C(=O)N2CCN(C)CC2)[C@@H]2CC[C@H]1O2` (stereo partly shown) [Compound 107] here?
A: inhibit protein phosphatase 2A

Q: Which “inhibition of protein phosphatase 2A” value (protein phosphatase 2A) does the source give for `O=C(O)C1C(C(=O)N2CCN(Cc3ccccc3)CC2)[C@@H]2CC[C@H]1O2` (stereo partly shown) [Compound 103] here?
A: inhibit protein phosphatase 2A

Q: `O=C(O)C1C(C(=O)N2CCOCC2)[C@@H]2CC[C@H]1O2` (stereo partly shown) [Compound 111] was tested. Which “inhibition of protein phosphatase 2A” value (protein phosphatase 2A) did it give?
A: inhibit protein phosphatase 2A

Q: `CN1CCN(C(=O)C2C(C(=O)O)[C@H]3CC[C@@H]2O3)CC1` (stereo partly shown) [Compound 100] was tested. Which “p-Akt (western blot)” value [6] did it give?
A: induction of p-Akt

Q: What about the “total Akt relative to beta actin (western blot)” value (shortened to “total Akt relative to beta actin”) [6] of the same compound?
A: increase in total Akt relative to beta actin

Q: And the “inhibition of protein phosphatase 2A” value (protein phosphatase 2A)?
A: inhibit protein phosphatase 2A

Q: And the “p-Akt (western blot)” value [7]?
A: induction of p-Akt

Q: And the “total Akt relative to beta actin” value [7]?
A: increase in total Akt relative to beta actin

Q: And the “p-Akt (western blot)” value [8]?
A: induction of p-Akt

Q: And the “total Akt relative to beta actin” value [8]?
A: increase in total Akt relative to beta actin

Q: And the “entry into the brain” value [4]?
A: properties that enhance their entry into the brain

Q: And the “acetylation of histone 3 and histone 4 in brain” value [4]?
A: increased acetylation of the histones

Q: What about the “p-Akt (western blot)” value [5] of the same compound?
A: induction of p-Akt

Q: And the “total Akt relative to beta actin” value [5]?
A: increase in total Akt relative to beta actin

Q: And the “Akt phosphorylation in xenografts” value (Akt)?
A: increased Akt phosphorylation

Q: `CCN1CCN(C(=O)C2C(C(=O)O)[C@H]3CC[C@@H]2O3)CC1` (stereo partly shown) [Compound 105] was tested. Which “inhibition of protein phosphatase 2A” value (protein phosphatase 2A) did it give?
A: inhibit protein phosphatase 2A
